# Tests used:
# [1] = tested on: MV-4-11; assay: Cytotoxicity in cell lines; assay type: cell-based; details: Homo sapiens, MV4-11, Table 4; read-out: IC50 MV-411
# Experimental: (§1) The cytotoxicity of exemplary compounds of the application was tested in multiple cell lines including MV-4-11, MOLM-13, MCF-7, MRC9, K562 and MM.1S. The therapeutic index was evaluated by determining the toxicity of the exemplary compounds in healthy cell lines including fibroblasts and HUVEC.
# [2] = tested on: MCF-7; assay: Cytotoxicity in cell lines; assay type: cell-based; details: Homo sapiens, MCF7; Table 4
# Experimental: as §1
# [3] = tested on: MOLM-13; assay: Cytotoxicity in cell lines; assay type: cell-based; details: Homo sapiens, MOLM-13; Table 4; read-out: IC50 MOLM-13
# Experimental: as §1
# [4] = target: HDAC2 (Homo sapiens, UniProt Q92769); assay: in vitro activity-based HDAC assay; assay type: biochemical; details: human HDAC isoform panel, Table 1
# Experimental: (§2) The exemplary compounds of Formula I and structurally related compounds were synthesized to assess their structure-activity relationship. […] The IC50 values for each exemplary compound were used to calculate the selectivity of the exemplary compounds for Formula I to HDAC6. The selectivity of each exemplary compound for HDAC6 was determined from examining the potency of HDAC6 in relation to the highest binding affinity of the other HDAC isoforms tested.
# [5] = target: HDAC9 (Homo sapiens, UniProt Q9UKV0); assay: in vitro activity-based HDAC assay; assay type: biochemical; details: human HDAC isoform panel, Table 1
# Experimental: as §2
# [6] = target: T1, HDAC7 (Homo sapiens, UniProt Q8WUI4); assay: in vitro activity-based HDAC assay; assay type: biochemical; details: human HDAC isoform panel, Table 1
# T1 sequence (Q8WUI4 1-952): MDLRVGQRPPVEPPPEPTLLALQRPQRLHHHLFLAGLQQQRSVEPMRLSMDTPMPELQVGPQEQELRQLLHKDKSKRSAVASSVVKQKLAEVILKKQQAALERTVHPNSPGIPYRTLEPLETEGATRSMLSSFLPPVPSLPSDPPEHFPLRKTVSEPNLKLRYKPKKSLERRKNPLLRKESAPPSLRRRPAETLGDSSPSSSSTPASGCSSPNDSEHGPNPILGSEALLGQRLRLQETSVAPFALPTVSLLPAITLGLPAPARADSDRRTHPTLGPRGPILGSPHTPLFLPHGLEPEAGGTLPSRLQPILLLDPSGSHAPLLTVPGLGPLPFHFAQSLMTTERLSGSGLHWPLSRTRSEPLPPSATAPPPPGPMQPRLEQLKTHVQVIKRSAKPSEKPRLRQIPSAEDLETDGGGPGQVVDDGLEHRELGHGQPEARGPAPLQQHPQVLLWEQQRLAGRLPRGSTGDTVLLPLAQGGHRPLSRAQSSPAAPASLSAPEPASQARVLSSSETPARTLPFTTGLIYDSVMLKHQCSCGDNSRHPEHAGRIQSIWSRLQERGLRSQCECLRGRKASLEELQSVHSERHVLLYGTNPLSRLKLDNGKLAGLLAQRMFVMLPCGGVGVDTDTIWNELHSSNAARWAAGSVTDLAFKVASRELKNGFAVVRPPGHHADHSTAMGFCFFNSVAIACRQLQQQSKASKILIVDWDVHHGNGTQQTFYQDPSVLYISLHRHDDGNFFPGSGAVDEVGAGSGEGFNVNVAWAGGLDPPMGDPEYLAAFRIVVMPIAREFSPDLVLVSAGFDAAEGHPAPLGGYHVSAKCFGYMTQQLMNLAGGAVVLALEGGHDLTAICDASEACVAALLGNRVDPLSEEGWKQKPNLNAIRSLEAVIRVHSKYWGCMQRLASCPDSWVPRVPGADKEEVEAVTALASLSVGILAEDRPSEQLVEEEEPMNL
# Experimental: as §2
# [7] = target: HDAC4 (Homo sapiens, UniProt P56524); assay: in vitro activity-based HDAC assay; assay type: biochemical; details: human HDAC isoform panel, Table 1
# Experimental: as §2
# [8] = target: HDAC1 (Homo sapiens, UniProt Q13547); assay: in vitro activity-based HDAC assay; assay type: biochemical; details: human HDAC isoform panel, Table 1
# Experimental: as §2
# [9] = target: T2, HDAC10 (Homo sapiens, UniProt Q969S8); assay: in vitro activity-based HDAC assay; assay type: biochemical; details: human HDAC isoform panel, Table 1
# T2 sequence (Q969S8 1-669): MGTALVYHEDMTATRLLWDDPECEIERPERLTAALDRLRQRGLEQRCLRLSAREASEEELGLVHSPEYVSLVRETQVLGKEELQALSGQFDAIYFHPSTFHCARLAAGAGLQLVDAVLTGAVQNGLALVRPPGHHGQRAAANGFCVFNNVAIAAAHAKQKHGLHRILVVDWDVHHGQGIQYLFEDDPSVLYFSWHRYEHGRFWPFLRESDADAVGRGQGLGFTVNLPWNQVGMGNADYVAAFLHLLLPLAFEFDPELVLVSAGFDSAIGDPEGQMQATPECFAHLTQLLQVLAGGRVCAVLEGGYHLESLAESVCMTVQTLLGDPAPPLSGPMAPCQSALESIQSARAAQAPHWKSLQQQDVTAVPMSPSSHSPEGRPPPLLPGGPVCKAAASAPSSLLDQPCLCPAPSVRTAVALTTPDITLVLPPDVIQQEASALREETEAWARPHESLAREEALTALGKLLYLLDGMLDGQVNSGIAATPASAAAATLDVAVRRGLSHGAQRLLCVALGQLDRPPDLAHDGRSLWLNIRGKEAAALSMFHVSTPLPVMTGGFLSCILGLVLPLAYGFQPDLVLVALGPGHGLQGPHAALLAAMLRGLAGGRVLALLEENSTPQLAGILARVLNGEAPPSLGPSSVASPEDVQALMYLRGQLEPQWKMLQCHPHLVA
# Experimental: as §2
# [10] = target: HDAC5 (Homo sapiens, UniProt Q9UQL6); assay: in vitro activity-based HDAC assay; assay type: biochemical; details: human HDAC isoform panel, Table 1
# Experimental: as §2
# [11] = tested on: MM.1S; assay: Cytotoxicity in cell lines; assay type: cell-based; details: Homo sapiens, MM1.S; Table 4
# Experimental: as §1
# [12] = tested on: MRC9; assay: Cytotoxicity in cell lines; assay type: cell-based; details: Table 4
# Experimental: as §1
# HDAC4, sequence (P56524 whole entry, canonical isoform): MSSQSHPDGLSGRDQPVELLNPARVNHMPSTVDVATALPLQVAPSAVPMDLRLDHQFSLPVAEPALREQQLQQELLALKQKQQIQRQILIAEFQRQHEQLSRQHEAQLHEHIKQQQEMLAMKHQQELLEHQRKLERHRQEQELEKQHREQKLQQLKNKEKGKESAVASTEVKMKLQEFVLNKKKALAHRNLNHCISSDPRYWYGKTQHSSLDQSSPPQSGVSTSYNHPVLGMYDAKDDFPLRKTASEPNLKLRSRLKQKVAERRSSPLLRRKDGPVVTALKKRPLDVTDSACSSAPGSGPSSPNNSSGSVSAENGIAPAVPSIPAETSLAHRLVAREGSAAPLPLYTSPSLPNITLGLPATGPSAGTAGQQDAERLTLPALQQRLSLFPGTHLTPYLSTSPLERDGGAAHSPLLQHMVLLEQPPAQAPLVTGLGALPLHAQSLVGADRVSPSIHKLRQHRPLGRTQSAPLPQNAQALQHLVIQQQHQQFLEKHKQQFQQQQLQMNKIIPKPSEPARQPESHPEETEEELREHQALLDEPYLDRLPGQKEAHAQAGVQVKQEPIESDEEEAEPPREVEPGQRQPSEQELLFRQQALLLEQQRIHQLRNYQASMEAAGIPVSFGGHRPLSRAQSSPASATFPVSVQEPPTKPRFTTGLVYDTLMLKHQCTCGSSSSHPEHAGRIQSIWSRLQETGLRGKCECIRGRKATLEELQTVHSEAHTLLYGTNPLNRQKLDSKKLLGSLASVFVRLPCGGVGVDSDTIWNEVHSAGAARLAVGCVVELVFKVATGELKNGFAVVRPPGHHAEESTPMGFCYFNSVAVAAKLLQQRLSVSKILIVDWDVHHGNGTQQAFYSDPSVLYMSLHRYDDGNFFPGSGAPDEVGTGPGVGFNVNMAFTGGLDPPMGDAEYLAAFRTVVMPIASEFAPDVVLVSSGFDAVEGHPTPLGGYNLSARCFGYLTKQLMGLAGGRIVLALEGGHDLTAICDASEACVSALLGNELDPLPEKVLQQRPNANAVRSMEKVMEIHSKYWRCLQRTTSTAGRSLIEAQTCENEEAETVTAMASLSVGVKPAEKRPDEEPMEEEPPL
# HDAC2, sequence (Q92769 whole entry, canonical isoform): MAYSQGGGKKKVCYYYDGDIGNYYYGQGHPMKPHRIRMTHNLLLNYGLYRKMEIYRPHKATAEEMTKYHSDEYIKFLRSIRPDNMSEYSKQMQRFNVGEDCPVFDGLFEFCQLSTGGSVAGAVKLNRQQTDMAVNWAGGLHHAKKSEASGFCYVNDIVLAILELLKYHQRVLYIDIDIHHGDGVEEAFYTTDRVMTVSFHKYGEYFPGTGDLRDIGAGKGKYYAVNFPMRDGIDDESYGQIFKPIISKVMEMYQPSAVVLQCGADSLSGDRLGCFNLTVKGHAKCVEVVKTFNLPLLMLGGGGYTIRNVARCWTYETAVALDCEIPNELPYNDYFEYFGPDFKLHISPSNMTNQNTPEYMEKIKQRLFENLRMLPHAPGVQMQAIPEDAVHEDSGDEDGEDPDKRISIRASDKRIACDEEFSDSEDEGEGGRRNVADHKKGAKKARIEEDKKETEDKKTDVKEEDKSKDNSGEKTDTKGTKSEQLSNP
# HDAC9, sequence (Q9UKV0 whole entry, canonical isoform): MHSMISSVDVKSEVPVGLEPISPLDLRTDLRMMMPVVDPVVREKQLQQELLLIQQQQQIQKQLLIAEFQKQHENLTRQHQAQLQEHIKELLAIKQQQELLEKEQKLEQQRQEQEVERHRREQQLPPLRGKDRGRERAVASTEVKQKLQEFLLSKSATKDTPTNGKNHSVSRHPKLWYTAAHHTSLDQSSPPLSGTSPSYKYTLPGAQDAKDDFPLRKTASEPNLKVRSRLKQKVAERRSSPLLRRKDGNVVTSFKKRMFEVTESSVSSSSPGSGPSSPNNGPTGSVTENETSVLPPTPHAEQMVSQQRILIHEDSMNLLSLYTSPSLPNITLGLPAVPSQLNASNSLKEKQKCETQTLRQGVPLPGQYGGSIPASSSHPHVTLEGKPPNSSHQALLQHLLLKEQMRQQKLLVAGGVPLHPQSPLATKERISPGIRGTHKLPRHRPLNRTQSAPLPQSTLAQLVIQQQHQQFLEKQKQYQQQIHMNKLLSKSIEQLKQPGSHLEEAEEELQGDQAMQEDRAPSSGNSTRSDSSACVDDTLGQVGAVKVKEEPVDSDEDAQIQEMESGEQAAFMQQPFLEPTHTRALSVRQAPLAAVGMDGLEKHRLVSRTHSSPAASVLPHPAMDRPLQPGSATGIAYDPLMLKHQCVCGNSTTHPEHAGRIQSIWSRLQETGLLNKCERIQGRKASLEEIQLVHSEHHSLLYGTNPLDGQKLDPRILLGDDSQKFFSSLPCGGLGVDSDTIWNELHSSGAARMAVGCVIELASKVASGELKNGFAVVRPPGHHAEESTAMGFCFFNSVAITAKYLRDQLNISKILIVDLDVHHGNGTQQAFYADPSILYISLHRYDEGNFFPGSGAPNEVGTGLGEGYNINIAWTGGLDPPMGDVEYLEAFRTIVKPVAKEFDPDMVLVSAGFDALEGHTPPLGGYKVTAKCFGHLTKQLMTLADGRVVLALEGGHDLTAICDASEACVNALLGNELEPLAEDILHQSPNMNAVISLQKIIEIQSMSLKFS
# HDAC5, sequence (Q9UQL6 whole entry, canonical isoform): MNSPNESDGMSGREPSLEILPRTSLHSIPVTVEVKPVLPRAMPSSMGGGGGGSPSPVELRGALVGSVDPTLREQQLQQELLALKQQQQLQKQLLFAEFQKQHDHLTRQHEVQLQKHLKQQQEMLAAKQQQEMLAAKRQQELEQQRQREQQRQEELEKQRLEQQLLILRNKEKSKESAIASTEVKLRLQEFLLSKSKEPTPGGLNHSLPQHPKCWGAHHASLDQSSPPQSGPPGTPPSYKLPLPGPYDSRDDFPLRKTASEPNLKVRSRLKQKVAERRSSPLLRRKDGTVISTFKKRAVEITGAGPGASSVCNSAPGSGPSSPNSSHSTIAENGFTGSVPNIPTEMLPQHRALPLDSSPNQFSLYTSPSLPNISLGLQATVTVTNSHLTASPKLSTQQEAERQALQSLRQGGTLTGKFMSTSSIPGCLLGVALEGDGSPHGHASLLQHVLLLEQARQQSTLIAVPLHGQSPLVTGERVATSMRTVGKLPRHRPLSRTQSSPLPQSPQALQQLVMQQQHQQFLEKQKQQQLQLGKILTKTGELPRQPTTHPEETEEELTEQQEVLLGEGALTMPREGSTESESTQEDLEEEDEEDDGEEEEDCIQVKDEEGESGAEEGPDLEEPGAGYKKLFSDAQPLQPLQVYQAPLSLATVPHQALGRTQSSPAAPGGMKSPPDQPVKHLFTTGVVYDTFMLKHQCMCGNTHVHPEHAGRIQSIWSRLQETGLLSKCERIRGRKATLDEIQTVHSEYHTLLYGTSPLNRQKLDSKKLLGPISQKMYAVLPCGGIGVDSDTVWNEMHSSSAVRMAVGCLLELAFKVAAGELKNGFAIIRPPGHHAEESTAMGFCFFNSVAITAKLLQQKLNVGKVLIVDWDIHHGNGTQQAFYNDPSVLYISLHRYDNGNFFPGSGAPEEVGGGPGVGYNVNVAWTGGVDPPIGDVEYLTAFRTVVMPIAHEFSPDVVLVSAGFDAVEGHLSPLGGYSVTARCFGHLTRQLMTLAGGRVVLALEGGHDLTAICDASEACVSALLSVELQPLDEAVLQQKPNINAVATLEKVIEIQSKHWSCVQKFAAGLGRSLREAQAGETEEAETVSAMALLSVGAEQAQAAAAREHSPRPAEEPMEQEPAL
# HDAC1, sequence (Q13547 whole entry, canonical isoform): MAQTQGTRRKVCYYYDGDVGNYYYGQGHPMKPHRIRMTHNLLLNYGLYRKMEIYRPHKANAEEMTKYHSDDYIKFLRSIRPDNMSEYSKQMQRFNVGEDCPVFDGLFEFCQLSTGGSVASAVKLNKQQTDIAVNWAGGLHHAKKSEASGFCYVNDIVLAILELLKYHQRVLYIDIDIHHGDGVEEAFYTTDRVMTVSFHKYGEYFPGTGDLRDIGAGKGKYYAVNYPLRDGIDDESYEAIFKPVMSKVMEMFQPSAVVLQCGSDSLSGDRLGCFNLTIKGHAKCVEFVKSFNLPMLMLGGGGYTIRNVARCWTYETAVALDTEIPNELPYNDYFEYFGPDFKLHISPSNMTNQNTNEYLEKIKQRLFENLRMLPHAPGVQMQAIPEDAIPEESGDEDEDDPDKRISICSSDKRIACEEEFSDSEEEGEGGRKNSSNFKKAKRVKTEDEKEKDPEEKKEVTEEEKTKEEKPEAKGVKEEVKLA
IC50 [4],IC50 [5],IC50 [6],IC50 [7],IC50 [8],IC50 [9],IC50 [10],SMILES,IC50 [1],IC50 [2],IC50 [3],IC50 [11],IC50 [12]
–,–,–,–,–,–,–,"O=C(NO)c1ccc(CN(Cc2cccnc2)S(=O)(=O)c2cc(F)c(F)c(F)c2F)c(C(F)(F)F)c1 [Compound I-31, N-hydroxy-4-((2,3,4,5-tetrafluoro-N-(pyridin-3-ylmethyl)phenylsulfonamido)methyl)-3-(trifluoromethyl)benzamide]",3400 nM,5000 nM,1600 nM,–,–
> 1000 nM,> 1000 nM,> 1000 nM,> 1000 nM,> 1000 nM,> 1000 nM,> 1000 nM,"CC(C)N(Cc1ccc(C(=O)NO)cc1F)S(=O)(=O)c1cc(F)c(F)c(F)c1F [Compound I-50, 3-fluoro-N-hydroxy-4-(((2,3,4,5-tetrafluoro-N-isopropylphenyl)sulfonamido)methyl)benzamide]",1600 nM,–,–,1200 nM,> 50000 nM

# — US20220169598A1, “HALOGENATED PHENYLSULFONAMIDE HYDROXAMIC ACID COMPOUNDS, COMPOSITIONS AND USES THEREOF AS SELECTIVE HDAC6 INHIBITORS” (2681603 ONTARIO INC., priority 2019, published 2022)
